In patent US9491933B2, “Infected nail of animal infected with fungus” (POLA PHARMA, INC., priority 2007, dated 2016):

Test: Rabbit immunity suppression: body weight change after administration of the immunosuppressive agent
Assay type: in vivo, Japanese white rabbit
Conditions: 4 mg/kg per dose to femoral muscle once a week; 2 weeks after starting the administration; average of 15 rabbits
Procedure: 14 week old Japanese white rabbits (Kbl: JW, Kitayama Labes Co., Ltd.) were quarantined and acclimatized for 1 week. After acclimatization, a long-acting methylprednisolone acetate preparation (Depo Melcort, Fuji Pharma Co., Ltd.) was administered as an immunosuppressive agent to femoral muscle a total of three times, with 4 mg/kg as the amount administered in one dose, at intervals of once a week. […] At a point 2 weeks after starting the administration, at which the average of the weights of a total of 15 rabbits had decreased by about 6% from the weight prior to administration, inoculation with a fungal liquid was carried out.

CC(=O)OCC(=O)[C@@]1(O)CC[C@H]2[C@@H]3C[C@H](C)C4=CC(=O)C=C[C@]4(C)[C@H]3[C@@H](O)C[C@@]21C [methylprednisolone acetate]
decrease of average weight from the weight prior to administration (indicator of immunocompromise): about 6%
